Laboratory results taken from patent US20230085307A1, “PYRIDAZINONE COMPOUND AND HERBICIDE” (NISSAN CHEMICAL CORPORATION, priority 2019, published 2023).

Tests used:
windgrass [1] = assay: Test Example 4: herbicidal effect by soil treatment (Table 19, symbol L); type: in vivo, windgrass (Apera spica-venti); conditions: amount of applied herbicide 320 g/ha
In short: (§1)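 In this soil treatment, the formulated compound reached the seeds only through the soil: seeds were buried about 1.5 cm deep in sterilized diluvial soil, then the diluted emulsion was sprayed over the surface. After three weeks at 25° C. to 30° C. in a greenhouse, effects were graded on criteria from an earlier test.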

chickweed [2] = assay: Test Example 5: herbicidal effect by foliage application, plastic box (Table 20, symbol P); type: in vivo, common chickweed (Stellaria media); conditions: foliage application, 320 g/ha, evaluated three weeks after application
In short: (§2)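 Plants were sown into sterilized diluvial soil under about 1.5 cm cover and kept in a greenhouse at 25° C. to 30° C. Fourteen days on, foliage received an even spray of the diluted emulsion. Herbicidal or crop effect was judged three weeks afterwards.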

wild oat [3] = assay: Test Example 5: herbicidal effect by foliage application, plastic box (Table 20, symbol I); type: in vivo, wild oat (Avena fatua); conditions: foliage application, 320 g/ha, evaluated three weeks after application
In short: as §2

Italian ryegrass [4] = assay: Test Example 5: herbicidal effect by foliage application, plastic box (Table 20, symbol K); type: in vivo, Italian ryegrass (Lolium multiflorum); conditions: foliage application, 320 g/ha, evaluated three weeks after application
In short: as §2

persian speedwell [5] = assay: Test Example 5: herbicidal effect by foliage application, plastic box (Table 20, symbol R); type: in vivo, Persian speedwell (Veronica persica); conditions: foliage application, 320 g/ha, evaluated three weeks after application
In short: as §2

blackgrass [6] = assay: Test Example 5: herbicidal effect by foliage application, plastic box (Table 20, symbol J); type: in vivo, blackgrass (Alopecurus myosuroides); conditions: foliage application, 320 g/ha, evaluated three weeks after application
In short: as §2

rice flat sedge = assay: Test Example 3: herbicidal effect by foliage application, Wagner pot (Table 18, symbol E); type: in vivo, rice flat sedge (Cyperus iria); conditions: amount of applied herbicide 320 g/ha
In short: (§3)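 Plants were sown in alluvial soil held under 0.1–0.5 cm standing water and grown 14 days in a greenhouse at 25–30 °C. An emulsifiable formulation, water-diluted to the set dose, was then sprayed onto the foliage, and effects were scored three weeks later using previously defined criteria.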

redroot pigweed [7] = assay: Test Example 5: herbicidal effect by foliage application, plastic box (Table 20, symbol N); type: in vivo, redroot pigweed (Amaranthus retroflexus); conditions: foliage application, 320 g/ha, evaluated three weeks after application
In short: as §2

green foxtail [8] = assay: Test Example 4: herbicidal effect by soil treatment (Table 19, symbol G); type: in vivo, green foxtail (Setaria viridis); conditions: amount of applied herbicide 320 g/ha
In short: as §1

persian speedwell [9] = assay: Test Example 4: herbicidal effect by soil treatment (Table 19, symbol R); type: in vivo, Persian speedwell (Veronica persica); conditions: amount of applied herbicide 320 g/ha
In short: as §1

velvetleaf [10] = assay: Test Example 4: herbicidal effect by soil treatment (Table 19, symbol M); type: in vivo, velvetleaf (Abutilon theophrasti); conditions: amount of applied herbicide 320 g/ha
In short: as §1

Chinese sprangletop = assay: Test Example 3: herbicidal effect by foliage application, Wagner pot (Table 18, symbol D); type: in vivo, chinese sprangletop (Leptochloa chinensis); conditions: amount of applied herbicide 320 g/ha
In short: as §3

Italian ryegrass [11] = assay: Test Example 4: herbicidal effect by soil treatment (Table 19, symbol K); type: in vivo, Italian ryegrass (Lolium multiflorum); conditions: amount of applied herbicide 320 g/ha
In short: as §1

barnyard grass [12] = assay: Test Example 5: herbicidal effect by foliage application, plastic box (Table 20, symbol H); type: in vivo, barnyard grass (Echinochloa crus-galli); conditions: foliage application, 320 g/ha, evaluated three weeks after application
In short: as §2

windgrass [13] = assay: Test Example 5: herbicidal effect by foliage application, plastic box (Table 20, symbol L); type: in vivo, windgrass (Apera spica-venti); conditions: foliage application, 320 g/ha, evaluated three weeks after application
In short: as §2

wild oat [14] = assay: Test Example 4: herbicidal effect by soil treatment (Table 19, symbol I); type: in vivo, wild oat (Avena fatua); conditions: amount of applied herbicide 320 g/ha
In short: as §1

chickweed [15] = assay: Test Example 4: herbicidal effect by soil treatment (Table 19, symbol P); type: in vivo, common chickweed (Stellaria media); conditions: amount of applied herbicide 320 g/ha
In short: as §1

southern crabgrass [16] = assay: Test Example 5: herbicidal effect by foliage application, plastic box (Table 20, symbol F); type: in vivo, southern crabgrass (Digitaria ciliaris); conditions: foliage application, 320 g/ha, evaluated three weeks after application
In short: as §2

barnyard grass [17] = assay: Test Example 4: herbicidal effect by soil treatment (Table 19, symbol H); type: in vivo, barnyard grass (Echinochloa crus-galli); conditions: amount of applied herbicide 320 g/ha
In short: as §1

barnyard grass [18] = assay: Test Example 3: herbicidal effect by foliage application, Wagner pot (Table 18, symbol H); type: in vivo, barnyard grass (Echinochloa crus-galli); conditions: amount of applied herbicide 320 g/ha
In short: as §3

green foxtail [19] = assay: Test Example 5: herbicidal effect by foliage application, plastic box (Table 20, symbol G); type: in vivo, green foxtail (Setaria viridis); conditions: foliage application, 320 g/ha, evaluated three weeks after application
In short: as §2

redroot pigweed [20] = assay: Test Example 4: herbicidal effect by soil treatment (Table 19, symbol N); type: in vivo, redroot pigweed (Amaranthus retroflexus); conditions: amount of applied herbicide 320 g/ha
In short: as §1

lambsquarters [21] = assay: Test Example 5: herbicidal effect by foliage application, plastic box (Table 20, symbol O); type: in vivo, lambsquarters (Chenopodium album); conditions: foliage application, 320 g/ha, evaluated three weeks after application
In short: as §2

blackgrass [22] = assay: Test Example 4: herbicidal effect by soil treatment (Table 19, symbol J); type: in vivo, blackgrass (Alopecurus myosuroides); conditions: amount of applied herbicide 320 g/ha
In short: as §1

southern crabgrass [23] = assay: Test Example 4: herbicidal effect by soil treatment (Table 19, symbol F); type: in vivo, southern crabgrass (Digitaria ciliaris); conditions: amount of applied herbicide 320 g/ha
In short: as §1

velvetleaf [24] = assay: Test Example 5: herbicidal effect by foliage application, plastic box (Table 20, symbol M); type: in vivo, velvetleaf (Abutilon theophrasti); conditions: foliage application, 320 g/ha, evaluated three weeks after application
In short: as §2

lambsquarters [25] = assay: Test Example 4: herbicidal effect by soil treatment (Table 19, symbol O); type: in vivo, lambsquarters (Chenopodium album); conditions: amount of applied herbicide 320 g/ha
In short: as §1

Structure (SMILES)	L: windgrass, herbicidal effect rating (windgrass [1])	herbicidal effect on E: rice flat sedge (rice flat sedge)	G: green foxtail, herbicidal effect rating (green foxtail [8])	R: persian speedwell, herbicidal effect rating (persian speedwell [9])	M: velvetleaf, herbicidal effect rating (velvetleaf [10])	herbicidal effect on D: Chinese sprangletop (Chinese sprangletop)	K: Italian ryegrass, herbicidal effect rating (Italian ryegrass [11])	I: wild oat, herbicidal effect rating (wild oat [14])	P: chickweed, herbicidal effect rating (chickweed [15])	H: barnyard grass, herbicidal effect rating (barnyard grass [17])	herbicidal effect on H: barnyard grass (barnyard grass [18])	N: redroot pigweed, herbicidal effect rating (redroot pigweed [20])	J: blackgrass, herbicidal effect rating (blackgrass [22])	F: southern crabgrass, herbicidal effect rating (southern crabgrass [23])	O: lambsquarters, herbicidal effect rating (lambsquarters [25])	herbicidal effect on P: chickweed (criteria 0-5) (chickweed [2])	herbicidal effect on I: wild oat (criteria 0-5) (wild oat [3])	herbicidal effect on K: Italian ryegrass (criteria 0-5) (Italian ryegrass [4])	herbicidal effect on R: persian speedwell (criteria 0-5) (persian speedwell [5])	herbicidal effect on J: blackgrass (criteria 0-5) (blackgrass [6])	other results
CCCC(=O)Oc1c(C)nn(C)c(=O)c1-c1c(-c2ccc(C)cc2)sc2ccc(C)cc12 [2-137]	0 (Herbicidal rate of 5% or less (almost no effect))	5 (Herbicidal rate of 90% or more (almost completely withered))	0 (Herbicidal rate of 5% or less (almost no effect))	1 (Herbicidal rate of 5% or more and less than 20%)	0 (Herbicidal rate of 5% or less (almost no effect))	1 (Herbicidal rate of 5% or more and less than 20%)	2 (Herbicidal rate of 20% or more and less than 40%)	0 (Herbicidal rate of 5% or less (almost no effect))	4 (Herbicidal rate of 70% or more and less than 90%)	0 (Herbicidal rate of 5% or less (almost no effect))	1 (Herbicidal rate of 5% or more and less than 20%)	0 (Herbicidal rate of 5% or less (almost no effect))	0 (Herbicidal rate of 5% or less (almost no effect))	0 (Herbicidal rate of 5% or less (almost no effect))	0 (Herbicidal rate of 5% or less (almost no effect))	–	–	–	–	–	herbicidal effect on P: chickweed (chickweed [2]): 5 (Herbicidal rate of 90% or more (almost completely withered)); herbicidal effect on I: wild oat (wild oat [3]): 0 (Herbicidal rate of 5% or less (almost no effect)); herbicidal effect on K: Italian ryegrass (Italian ryegrass [4]): 4 (Herbicidal rate of 70% or more and less than 90%); herbicidal effect on R: persian speedwell (persian speedwell [5]): 5 (Herbicidal rate of 90% or more (almost completely withered)); herbicidal effect on J: blackgrass (blackgrass [6]): 0 (Herbicidal rate of 5% or less (almost no effect)); herbicidal effect on N: redroot pigweed (redroot pigweed [7]): 4 (Herbicidal rate of 70% or more and less than 90%); herbicidal effect on H: barnyard grass (barnyard grass [12]): 0 (Herbicidal rate of 5% or less (almost no effect)); herbicidal effect on L: windgrass (windgrass [13]): 0 (Herbicidal rate of 5% or less (almost no effect)); herbicidal effect on F: southern crabgrass (southern crabgrass [16]): 0 (Herbicidal rate of 5% or less (almost no effect)); herbicidal effect on G: green foxtail (green foxtail [19]): 3 (Herbicidal rate of 40% or more and less than 70%); herbicidal effect on O: lambsquarters (lambsquarters [21]): 2 (Herbicidal rate of 20% or more and less than 40%); herbicidal effect on M: velvetleaf (velvetleaf [24]): 4 (Herbicidal rate of 70% or more and less than 90%)
Cc1ccc2sc(-c3ccc4c(c3)OCO4)c(-c3c(O)c(C)nn(C)c3=O)c2c1 [2-156]	0 (Herbicidal rate of 5% or less (almost no effect))	4 (Herbicidal rate of 70% or more and less than 90%)	0 (Herbicidal rate of 5% or less (almost no effect))	4 (Herbicidal rate of 70% or more and less than 90%)	0 (Herbicidal rate of 5% or less (almost no effect))	0 (Herbicidal rate of 5% or less (almost no effect))	0 (Herbicidal rate of 5% or less (almost no effect))	0 (Herbicidal rate of 5% or less (almost no effect))	4 (Herbicidal rate of 70% or more and less than 90%)	0 (Herbicidal rate of 5% or less (almost no effect))	3 (Herbicidal rate of 40% or more and less than 70%)	2 (Herbicidal rate of 20% or more and less than 40%)	0 (Herbicidal rate of 5% or less (almost no effect))	0 (Herbicidal rate of 5% or less (almost no effect))	3 (Herbicidal rate of 40% or more and less than 70%)	5 (Herbicidal rate of 90% or more (almost completely withered))	0 (Herbicidal rate of 5% or less (almost no effect))	1 (Herbicidal rate of 5% or more and less than 20%)	5 (Herbicidal rate of 90% or more (almost completely withered))	0 (Herbicidal rate of 5% or less (almost no effect))	herbicidal effect on N: redroot pigweed (criteria 0-5) (redroot pigweed [7]): 3 (Herbicidal rate of 40% or more and less than 70%); herbicidal effect on H: barnyard grass (criteria 0-5) (barnyard grass [12]): 0 (Herbicidal rate of 5% or less (almost no effect)); herbicidal effect on L: windgrass (criteria 0-5) (windgrass [13]): 0 (Herbicidal rate of 5% or less (almost no effect)); herbicidal effect on F: southern crabgrass (criteria 0-5) (southern crabgrass [16]): 0 (Herbicidal rate of 5% or less (almost no effect)); herbicidal effect on G: green foxtail (criteria 0-5) (green foxtail [19]): 0 (Herbicidal rate of 5% or less (almost no effect)); herbicidal effect on O: lambsquarters (criteria 0-5) (lambsquarters [21]): 0 (Herbicidal rate of 5% or less (almost no effect)); herbicidal effect on M: velvetleaf (criteria 0-5) (velvetleaf [24]): 4 (Herbicidal rate of 70% or more and less than 90%)
C#Cc1ccc2sc(-c3ccccc3OC)c(-c3c(O)c(C)nn(C)c3=O)c2c1 [2-187]	5 (Herbicidal rate of 90% or more (almost completely withered))	0 (Herbicidal rate of 5% or less (almost no effect))	4 (Herbicidal rate of 70% or more and less than 90%)	0 (Herbicidal rate of 5% or less (almost no effect))	2 (Herbicidal rate of 20% or more and less than 40%)	0 (Herbicidal rate of 5% or less (almost no effect))	4 (Herbicidal rate of 70% or more and less than 90%)	0 (Herbicidal rate of 5% or less (almost no effect))	3 (Herbicidal rate of 40% or more and less than 70%)	3 (Herbicidal rate of 40% or more and less than 70%)	4 (Herbicidal rate of 70% or more and less than 90%)	4 (Herbicidal rate of 70% or more and less than 90%)	4 (Herbicidal rate of 70% or more and less than 90%)	1 (Herbicidal rate of 5% or more and less than 20%)	4 (Herbicidal rate of 70% or more and less than 90%)	5 (Herbicidal rate of 90% or more (almost completely withered))	0 (Herbicidal rate of 5% or less (almost no effect))	4 (Herbicidal rate of 70% or more and less than 90%)	5 (Herbicidal rate of 90% or more (almost completely withered))	5 (Herbicidal rate of 90% or more (almost completely withered))	herbicidal effect on N: redroot pigweed (criteria 0-5) (redroot pigweed [7]): 5 (Herbicidal rate of 90% or more (almost completely withered)); herbicidal effect on H: barnyard grass (criteria 0-5) (barnyard grass [12]): 1 (Herbicidal rate of 5% or more and less than 20%); herbicidal effect on L: windgrass (criteria 0-5) (windgrass [13]): 5 (Herbicidal rate of 90% or more (almost completely withered)); herbicidal effect on F: southern crabgrass (criteria 0-5) (southern crabgrass [16]): 4 (Herbicidal rate of 70% or more and less than 90%); herbicidal effect on G: green foxtail (criteria 0-5) (green foxtail [19]): 3 (Herbicidal rate of 40% or more and less than 70%); herbicidal effect on O: lambsquarters (criteria 0-5) (lambsquarters [21]): 4 (Herbicidal rate of 70% or more and less than 90%); herbicidal effect on M: velvetleaf (criteria 0-5) (velvetleaf [24]): 5 (Herbicidal rate of 90% or more (almost completely withered))
